# Laboratory results published in patent US20240175863A1, “COMPOSITIONS AND METHODS FOR MONITORING ENPP1 ACTIVITY” (The Regents of University of Californa, priority 2021, published 2024).
# Like-named read-outs stand apart in the source and are kept apart here.
# Tests used:
# [1] = test system: cardiac fibroblasts; test: myocyte conditioned medium transferred to cardiac fibroblasts, cell death (substance added to cardiomyocytes); type: cell-based, mouse; details: for cardiac fibroblast cell death by conditioned medium of cardiomyocytes treated with AMP plus inhibitor: inhibitor added to cardiomyocytes at the time of addition of AMP; for cardiac fibroblast cell death by conditioned medium of cardiomyocytes treated with the substance alone: conditioned medium collected after 24 hours
# [2] = test system: cardiac fibroblasts; test: direct treatment of cardiac fibroblasts with metabolites or inhibitors, cell death and rescue; type: cell-based, mouse
# [3] = test system: ENPP1 over-expressing cardiac fibroblasts; test: co-culture of ENPP1 over-expressing cardiac fibroblasts with rodent ventricular cardiomyocytes plus ATP; type: cell-based, mouse
# [4] = test system: cardiac fibroblasts; test: rescue of cardiac fibroblast cell death induced by ENPP1+ATP myocyte conditioned medium (substance added to fibroblasts); type: cell-based, mouse; details: for cell death of cardiac fibroblasts treated with ENPP1+ATP myocyte conditioned medium in presence of the substance: substance added to cardiac fibroblasts
# Source text: Unable to readily identity the pro-apoptotic metabolites, the studies sought alternative physiologic principles of approaching the problem. The data has consistently shown that the ENPP1+ATP myocyte conditioned medium caused death of a wide range of non-myocyte cells, but that myocytes themselves are not affected. This could be possibly secondary to a specific receptor that is present in non-myocytes and not in myocytes. However, as non-myocyte cells of different lineages are affected, it was hypothesized that the ability of myocytes to be immune to the conditioned medium likely reflects an inherent cellular property of myocytes that distinguishes itself from that in non-myocyte cells tested by us. As non-myocytes are proliferative and myocytes are non-proliferative, it was hypothesized that the ability to cycle was making the non-myocytes susceptible to the metabolites secreted by the myocyte. To determine whether this was true, the studies harvested primary cardiac fibroblasts and induced cell cycle arrest of freshly harvested cardiac fibroblasts by irradiating them.
# It also provided an obvious explanation as to why non-proliferative myocytes are immune to the effects of the metabolite(s). A nucleotide balance between the content of purines and pyrimidines available to cycling cells is critical to avoid genotoxic stress and maintain genomic stability. It was hypothesized that disruption of the nucleotide biosynthetic pathways in non-myocyte cells and an imbalance of purine versus pyrimidine nucleotides was inducing genotoxic stress and initiating a DNA damage response in proliferating non-myocytes. The studies treated cardiac fibroblasts with ENPP1+ATP myocyte conditioned medium for 24 hours and measured the content of nucleoside monophosphate and nucleoside triphosphates in treated cardiac fibroblasts by LC/MS-MS. […] To determine whether this is true, the studies attempted to rescue cell death of cardiac fibroblasts by adding uridine or deoxycytidine to the ENPP1+ATP myocyte conditioned medium. Cardiac fibroblasts were treated with the ENPP1+ATP myocyte conditioned medium but uridine or deoxycytidine or both were added to the cardiac fibroblasts at the time of addition of ENPP1+ATP myocyte conditioned medium (FIG. 5C). […] Deoxycytidine serves as a precursor of dCTP synthesis via the enzyme deoxycytidine kinase.
# Pyrimidine biosynthesis occurs via a sequence of well-regulated steps (FIG. 5H), where carbamoyl phosphate is converted to carbamoyl aspartate and then to dihydroorotate. Dihydroorotate dehydrogenase (DHODH) then converts dihydroorotate to the pyrimidine orotate. In the presence of phosphoribosyl pyrophosphate (PRPP), orotate is converted by phosphoribosyl transferase activity of UMP synthase to orotidine monophosphate (OMP) and then decarboxylated by OMP decarboxylase activity of UMP synthase to uridine monophosphate (UMP). To determine which steps in pyrimidine biosynthesis are affected in cycling non-myocytes, the studies treated cardiac fibroblasts with ENPP1+ATP myocyte conditioned medium and 24 hours later harvested the cells and subjected the cardiac fibroblasts to mass spectrometry to determine metabolites in the pyrimidine biosynthesis pathway. […] As orotate levels were increased but orotidine levels decreased in cardiac fibroblasts treated with ENPP1+ATP myocyte conditioned medium, it was hypothesized that inhibition was occurring at the OMP synthesis step from orotate and PRPP (orotate phosphoribosyl transferase). […]
# [5] = test system: primary mouse embryonic fibroblasts (mEF); test: mouse embryonic fibroblasts treated with ENPP1+ATP myocyte conditioned medium, cell death; type: cell-based
# [6] = target: T1, ENPP1 (UniProt P22413); test: cell free luciferase based luminescent assay for ENPP1 inhibitors; type: biochemical
# T1 sequence (P22413 1-925): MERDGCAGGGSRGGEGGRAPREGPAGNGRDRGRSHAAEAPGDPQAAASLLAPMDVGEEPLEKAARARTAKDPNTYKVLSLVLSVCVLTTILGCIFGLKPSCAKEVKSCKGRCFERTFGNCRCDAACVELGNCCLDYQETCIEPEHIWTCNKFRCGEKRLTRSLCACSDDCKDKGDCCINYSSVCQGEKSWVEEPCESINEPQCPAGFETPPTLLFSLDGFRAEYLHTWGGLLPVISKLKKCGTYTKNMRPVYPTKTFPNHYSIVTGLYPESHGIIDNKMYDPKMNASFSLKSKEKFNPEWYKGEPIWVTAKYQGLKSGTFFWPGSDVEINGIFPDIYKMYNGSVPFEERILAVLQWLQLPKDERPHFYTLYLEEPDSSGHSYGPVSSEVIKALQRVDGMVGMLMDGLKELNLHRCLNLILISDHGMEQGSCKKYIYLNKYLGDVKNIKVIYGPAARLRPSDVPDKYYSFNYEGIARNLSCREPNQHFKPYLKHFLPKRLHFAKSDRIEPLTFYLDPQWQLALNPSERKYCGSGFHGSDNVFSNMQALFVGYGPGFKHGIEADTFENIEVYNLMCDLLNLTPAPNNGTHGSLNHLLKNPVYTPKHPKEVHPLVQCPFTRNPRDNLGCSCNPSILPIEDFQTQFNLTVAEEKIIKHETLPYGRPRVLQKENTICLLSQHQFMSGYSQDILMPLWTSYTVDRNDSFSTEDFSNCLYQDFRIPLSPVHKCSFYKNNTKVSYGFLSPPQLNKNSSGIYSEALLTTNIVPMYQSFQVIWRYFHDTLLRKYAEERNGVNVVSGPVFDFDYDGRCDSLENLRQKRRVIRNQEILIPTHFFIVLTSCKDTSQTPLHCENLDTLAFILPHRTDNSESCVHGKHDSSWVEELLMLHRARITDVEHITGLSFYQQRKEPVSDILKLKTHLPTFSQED
# [7] = test system: gamma H2A.X and p53Ser15 phosphorylation in non-myocyte cells; test: immunostaining of DNA damage response in non-myocyte cells of injured hearts; type: in vivo, mouse; details: hearts of myricetin treated animals
# [8] = test system: pyrimidine biosynthesis; test: metabolomic analysis of hearts and serum after cardiac injury; type: in vivo, mouse
# [9] = test system: C57BL/6 animals subjected to ischemic cardiac injury
# [10] = myricetin versus vehicle treated injured hearts
# [11] = myricetin versus vehicle, day 3
# [12] = 30 mg/kg myricetin intra-peritoneally daily for 14 days
# [13] = 30 mg/kg myricetin intra-peritoneally daily for 14 days, day 7 after injury, n=15
# [14] = uridine continuous infusion for 14 days
# [15] = uridine continuous infusion for 14 days, day 7 after injury, mean±S.E.M., n=15
smiles,measurement,setting,value
C[C@H](Nc1cc(Cl)nc2c1cnn2[C@@H]1O[C@H](COP(=O)(O)CP(=O)(O)O)[C@@H](O)[C@H]1O)c1ccccc1F [AB680],cardiac fibroblast cell death by conditioned medium of cardiomyocytes treated with AMP plus inhibitor,[1],significantly increases cardiac fibroblast cell death
Nc1ncnc2nc(-c3ccc(N4CCOCC4)nc3)cc(-c3cccc(Br)c3)c12 [ABT-702],cardiac fibroblast cell death by conditioned medium of cardiomyocytes treated with AMP plus inhibitor,[1],attenuated cell death
"Nc1ncnc2c1ncn2[C@@H]1O[C@H](COP(=O)(O)O)[C@@H](O)[C@H]1O [AMP, Adenosine monophosphate]",cardiac fibroblast cell death by conditioned medium of cardiomyocytes treated with the substance alone,[1],caused cell death
same,cell death of cardiac fibroblasts treated directly with the substance(s),[2],did not induce cell death
Nc1ncnc2c1ncn2[C@@H]1O[C@H](COP(=O)(O)CP(=O)(O)O)[C@@H](O)[C@H]1O [AMP-CP],cardiac fibroblast cell death by conditioned medium of cardiomyocytes treated with AMP plus inhibitor,[1],significantly increases cardiac fibroblast cell death
Nc1ncnc2c1ncn2[C@@H]1O[C@H](COP(=O)(O)OP(=O)(O)OP(=O)(O)O)[C@@H](O)[C@H]1O [ATP],reduction in the number of ENPP1 over-expressing cardiac fibroblasts,"[3]; ATP added to co-culture with neonatal rat ventricular cardiomyocytes, within 48 hours",75%
COc1ccc(-c2nc([C@@H](C)Sc3nc(N)cc(N)n3)c(C)s2)cc1OCCN1CCOCC1 [DI-87],rescue by deoxycytidine of ENPP1+ATP conditioned medium induced cell death in presence of deoxycytidine kinase inhibitor,[4],unable to prevent cell death
CCNC(=O)[C@H]1O[C@@H](n2cnc3c(N)ncnc32)[C@H](O)[C@@H]1O [NECA],cardiac fibroblast cell death by conditioned medium of cardiomyocytes treated with the substance alone,[1],did not cause fibroblast cell death
"O=C(O)c1cc(=O)[nH]c(=O)n1[C@@H]1O[C@H](COP(=O)(O)O)[C@@H](O)[C@H]1O [OMP, orotidine monophosphate]",cell death of cardiac fibroblasts treated with adenine and adenosine plus the substance,[2],rescue of cell death
same,cell death of cardiac fibroblasts treated with ENPP1+ATP myocyte conditioned medium in presence of the substance,[4],completely rescued cell death
"O=P(O)(O)OP(=O)(O)O [PPi, pyrophosphate]",cardiac fibroblast cell death by conditioned medium of cardiomyocytes treated with the substance alone,[1],not
"Nc1ncnc2nc[nH]c12 [adenine, Adenine]",cell death of cardiac fibroblasts after removal of the compound from the set of 7 compounds,[2],no cell death
same,cell death of cardiac fibroblasts treated directly with the substance(s),[2],no cell death was observed
"Nc1ncnc2c1ncn2[C@@H]1O[C@H](CO)[C@@H](O)[C@H]1O [adenosine, Adenosine]",cardiac fibroblast cell death by conditioned medium of cardiomyocytes treated with the substance alone,[1],unable to induce cell death
Cc1c(-c2ccc(-c3ccccc3F)cc2)nc2ccc(F)cc2c1C(=O)O [brequinar],cell death of cardiac fibroblasts treated directly with the substance(s),[2],cardiac fibroblast cell death
Nc1ccn([C@H]2C[C@H](O)[C@@H](CO)O2)c(=O)n1 [deoxycytidine],cell death of cardiac fibroblasts treated with ENPP1+ATP myocyte conditioned medium in presence of the substance,[4],completely rescued cell death
CO[C@@]12[C@H](COC(N)=O)C3=C(C(=O)C(C)=C(N)C3=O)N1C[C@@H]1N[C@@H]12 [mitomycin C],cell death of mEF treated with ENPP1+ATP myocyte conditioned medium after cell cycle arrest,[5],prevented cell death
same,cell death of cardiac fibroblasts treated with ENPP1+ATP myocyte conditioned medium in presence of the substance,[4],resistant to cell death
O=c1c(O)c(-c2cc(O)c(O)c(O)c2)oc2cc(O)cc(O)c12 [myricetin],cell death of cardiac fibroblasts in co-culture after addition of ATP,[3]; concomitant addition of myricetin (10 uM),significantly attenuated cell death
same,inhibition of ENPP1 enzymatic activity,[6],~99%
same,"cardiac fibroblast cell death with conditioned medium of cardiomyocytes treated with ENPP1+ATP plus substance, versus ENPP1+ATP conditioned medium",[1],significant reduction in cell death
same,p53Ser15 phosphorylation in non-myocyte cells,[7],attenuated
same,expression of gamma H2A.X in non-myocyte cells,[7]; 7 days following injury,attenuated expression
same,carbamoyl aspartate in the hearts,[8]; myricetin versus vehicle injected animals (FIG. 8K legend),decreased
same,carbamoyl phosphate levels in the injured regions of the heart,[8]; [10],decrease
same,level of cytidine in the injured regions of the heart,[8]; [10],significant increase
same,level of uridine in the injured regions of the heart,[8]; [10],significant increase
same,deoxyuridine in serum,[8]; [11],increased
same,orotate in serum,[8]; [11],decrease
same,orotidine in serum,"[8]; myricetin versus vehicle, day 7",increased
same,fraction of animals with severe fibrosis (>40% of the LV surface area),[9]; [12],15%
same,fraction of animals with severe heart failure (EF<20%),[9]; [12],23%
same,LVIDs (ventricular chamber size),[9]; [13],3.68±0.23
same,ejection fraction,[9]; [13],38.04±3.74%
same,fractional shortening,[9]; [13],18.67±2.05%
same,body weight,"[9]; mouse, in vivo",without any change
same,capillary density,"[9]; myricetin, versus vehicle",significant increase
same,ventricular hypertrophy,"[9]; myricetin, versus vehicle",decreased
same,area of scarring at the mid ventricular and apical regions,"[9]; myricetin, 4 weeks post injury, versus vehicle",significantly reduced
"O=c1ccn([C@@H]2O[C@H](CO)[C@@H](O)[C@H]2O)c(=O)[nH]1 [uridine, Uridine]",cell death of cardiac fibroblasts treated with adenine and adenosine plus the substance,[2],rescue of cell death
same,cell death of cardiac fibroblasts treated with brequinar plus uridine,[2],rescue
same,cell death of cardiac fibroblasts treated with the 7 compounds together with uridine,[2],cell death was prevented
same,cell death of cardiac fibroblasts treated with ENPP1+ATP myocyte conditioned medium in presence of the substance,[4],completely rescued cell death
same,animals with severe post infarct fibrosis (>40% of LV surface area),[9]; [14],none
same,fraction of animals with severe depression in EF (less than 20%),[9]; [14],13%
same,end systolic ventricular diameters,"[9]; uridine continuous infusion for 14 days, versus vehicle",trend towards better preservation
same,ejection fraction (EF),[9]; [15],37.02±3.12%
same,fractional shortening (FS),[9]; [15],18.01±1.68%
same,heart weight/body weight ratios,"[9]; uridine, versus vehicle",decreased
same,capillary density,"[9]; uridine, 4 weeks following injury",significantly increased
same,fibrosis measured at the apex and mid ventricle,"[9]; uridine, 4 weeks post injury, versus vehicle",decreased fibrosis
